Experimental data as given in the NIST ThermoML archive (doi:10.1021/je400140n).
± gives the expanded uncertainty stated by the source.

Assay: molar heat capacity at constant pressure
Details: 101.33 kPa, Liquid, Small sample (50 mg) DSC

Row | Compound | molar heat capacity at constant pressure (296.2 K) | molar heat capacity at constant pressure (300.2 K) | molar heat capacity at constant pressure (304.2 K) | molar heat capacity at constant pressure (308.2 K) | molar heat capacity at constant pressure (312.2 K) | molar heat capacity at constant pressure (316.2 K) | molar heat capacity at constant pressure (320.2 K) | molar heat capacity at constant pressure (324.2 K) | molar heat capacity at constant pressure (328.2 K) | molar heat capacity at constant pressure (332.2 K) | molar heat capacity at constant pressure (336.2 K) | molar heat capacity at constant pressure (340.2 K) | molar heat capacity at constant pressure (344.2 K) | molar heat capacity at constant pressure (348.2 K) | molar heat capacity at constant pressure (352.2 K) | molar heat capacity at constant pressure (356.2 K) | molar heat capacity at constant pressure (360.2 K) | molar heat capacity at constant pressure (364.2 K) | molar heat capacity at constant pressure (368.2 K) | molar heat capacity at constant pressure (372.2 K)
1 | CCCCn1cc[n+](C)c1.N#CN=C=[N-] [1-butyl-3-methylimidazolium dicyanamide] | 359.41 ± 58 J/K/mol | 361.87 ± 58 J/K/mol | 363.1 ± 58 J/K/mol | 364.34 ± 58 J/K/mol | 365.98 ± 59 J/K/mol | 367.21 ± 59 J/K/mol | 368.65 ± 59 J/K/mol | 370.08 ± 60 J/K/mol | 372.14 ± 60 J/K/mol | 374.39 ± 60 J/K/mol | 377.47 ± 61 J/K/mol | 380.35 ± 61 J/K/mol | 383.63 ± 62 J/K/mol | 386.71 ± 62 J/K/mol | 390.4 ± 63 J/K/mol | 394.51 ± 63 J/K/mol | 398.82 ± 64 J/K/mol | 403.34 ± 65 J/K/mol | 408.26 ± 65 J/K/mol | 413.6 ± 67 J/K/mol
2 | CCCCn1cc[n+](C)c1.N#C[S-] [1-butyl-3-methylimidazolium thiocyanate] | 319.63 ± 51 J/K/mol | 319.63 ± 51 J/K/mol | 320.22 ± 51 J/K/mol | 321.21 ± 51 J/K/mol | 322.98 ± 52 J/K/mol | 324.36 ± 52 J/K/mol | 325.55 ± 52 J/K/mol | 326.93 ± 52 J/K/mol | 329.1 ± 53 J/K/mol | 331.27 ± 53 J/K/mol | 333.64 ± 54 J/K/mol | 336 ± 54 J/K/mol | 338.57 ± 54 J/K/mol | 341.13 ± 55 J/K/mol | 344.29 ± 55 J/K/mol | 347.05 ± 56 J/K/mol | 350.21 ± 56 J/K/mol | 353.37 ± 57 J/K/mol | 356.72 ± 57 J/K/mol | 360.27 ± 58 J/K/mol
3 | CCn1cc[n+](C)c1.N#C[C-](C#N)C#N [1-ethyl-3-methyl-1H-imidazolium tricyanomethanide] | 357.18 ± 57 J/K/mol | 360.2 ± 58 J/K/mol | 362.41 ± 58 J/K/mol | 363.82 ± 58 J/K/mol | 365.83 ± 59 J/K/mol | 367.44 ± 59 J/K/mol | 368.85 ± 59 J/K/mol | 370.26 ± 60 J/K/mol | 372.07 ± 60 J/K/mol | 374.49 ± 60 J/K/mol | 376.9 ± 61 J/K/mol | 379.31 ± 61 J/K/mol | 381.73 ± 61 J/K/mol | 384.35 ± 62 J/K/mol | 387.16 ± 62 J/K/mol | 390.18 ± 63 J/K/mol | 393 ± 63 J/K/mol | 396.22 ± 64 J/K/mol | 399.24 ± 64 J/K/mol | 403.06 ± 65 J/K/mol
4 | CCn1cc[n+](C)c1.N#CN=C=[N-] [1-ethyl-3-methylimidazolium dicyanamide] | 323.76 ± 52 J/K/mol | 325.88 ± 52 J/K/mol | 328.01 ± 53 J/K/mol | 329.96 ± 53 J/K/mol | 332.44 ± 53 J/K/mol | 334.21 ± 54 J/K/mol | 335.81 ± 54 J/K/mol | 337.76 ± 54 J/K/mol | 340.24 ± 55 J/K/mol | 342.89 ± 55 J/K/mol | 345.55 ± 55 J/K/mol | 348.21 ± 56 J/K/mol | 351.22 ± 56 J/K/mol | 354.41 ± 57 J/K/mol | 357.78 ± 57 J/K/mol | 361.15 ± 58 J/K/mol | 364.87 ± 59 J/K/mol | 368.59 ± 59 J/K/mol | 372.49 ± 60 J/K/mol | 376.74 ± 60 J/K/mol
5 | CCn1cc[n+](C)c1.N#C[S-] [1-ethyl-3-methylimidazolium thiocyanate] | 284.51 ± 46 J/K/mol | 284.17 ± 46 J/K/mol | 285.18 ± 46 J/K/mol | 286.2 ± 46 J/K/mol | 287.89 ± 46 J/K/mol | 289.25 ± 47 J/K/mol | 290.6 ± 47 J/K/mol | 292.12 ± 47 J/K/mol | 293.98 ± 47 J/K/mol | 296.18 ± 48 J/K/mol | 298.22 ± 48 J/K/mol | 300.59 ± 48 J/K/mol | 303.12 ± 49 J/K/mol | 305.49 ± 49 J/K/mol | 308.2 ± 49 J/K/mol | 310.91 ± 50 J/K/mol | 313.96 ± 50 J/K/mol | 317.17 ± 51 J/K/mol | 320.05 ± 51 J/K/mol | 323.43 ± 52 J/K/mol
6 | O=S1(=O)CCCC1 [sulfolane] |  |  |  | 182.42 ± 29 J/K/mol | 183.5 ± 29 J/K/mol | 184.7 ± 30 J/K/mol | 185.9 ± 30 J/K/mol | 187.11 ± 30 J/K/mol | 188.79 ± 30 J/K/mol | 190.47 ± 31 J/K/mol | 192.39 ± 31 J/K/mol | 194.32 ± 31 J/K/mol | 196.36 ± 31 J/K/mol | 198.52 ± 32 J/K/mol | 200.81 ± 32 J/K/mol | 203.21 ± 33 J/K/mol | 205.73 ± 33 J/K/mol | 208.26 ± 33 J/K/mol | 210.9 ± 34 J/K/mol | 213.66 ± 34 J/K/mol
